Values of other authors as cited in patent US20040018260A1, “Novel botanical extract of Tripterygium Wilfordii Hook F” (Novemed Group Limited, priority 2002, published 2004).
“Also recorded” adds a separate entry of the source.

Tests used:
[1] = in vitro and animal experiments; results called inconclusive
[2] = in vitro and animal experiments; results called inconclusive; remark: listed apart in the source
[3] = reported

Compound | immunosuppressive activity [1] | anti-inflammatory activity [2] | carcinogenic or mutagenic [3]
CC(C)[C@]12O[C@H]1[C@@H]1O[C@@]13[C@@]1(C)CCC4=C(COC4=O)[C@@H]1C[C@@H]1O[C@@]13C2=O [T7, Triptonide] | relatively low activities | relatively low activities | 
CC(C)[C@]12O[C@H]1[C@@H]1O[C@]13[C@]1(O[C@H]1C[C@H]1C4=C(CC[C@@]13C)C(=O)OC4)[C@@H]2O [T10, triptolide] | most abundant and active compound | most abundant and active compound | potently carcinogenic or mutagenic; also recorded: carcinogenic
CC(C)[C@]1(O)[C@H](O)[C@@H]2O[C@]23[C@]2(O[C@H]2C[C@H]2C4=C(CC[C@@]23C)C(=O)OC4)[C@@H]1O [T11, tripriolide] | little immunosuppressive activity | highest anti-inflammatory activity | 
